# Source: US20040259866A1, “Calcium channel blockers comprising two benzhydril moieties” (priority 1998, published 2004)
# Where two headings read alike, the source gives them in different places.
# Tests used:
# [1] = test system: L-type channels (α1C+α2δ+β1b cDNA subunits); test: Selectivity patch clamp, L-type channels in HEK 293 (Example 7); format: cell-based; settings: Tested at 0.1 Hz, 5 mM Ba2+
# [2] = target: T1, N-type calcium channels (α1B+α2δ+β1b cDNA subunits) (Rattus norvegicus, UniProt Q02294); test: Selectivity patch clamp, N-type channels in HEK 293 (Example 7); format: cell-based; settings: Tested at 0.1 Hz, 5 mM Ba2+
# T1 construct: expressed in transfected cells
# [3] = target: T2, rat α1B+α2b+β1b channels (N-type channels) (Rattus norvegicus, UniProt Q02294); test: Block of α1B N-type channels, whole cell patch recordings (Example 6); format: cell-based; settings: HEK 293, 5 mM barium as charge carrier
# T2 construct: expressed in transfected cells
# Procedure: Antagonist activity was measured using whole cell patch recordings on human embryonic kidney cells either stably or transiently expressing rat α1B+α2b+β1b channels (N-type channels) with 5 mM barium as a charge carrier.
# For transient expression, host cells, such as human embryonic kidney cells, HEK 293 (ATCC# CRL 1573) were grown in standard DMEM medium supplemented with 2 mM glutamine and 10% fetal bovine serum. HEK 293 cells were transfected by a standard calcium-phosphate-DNA coprecipitation method using the rat α1B+β1b+α2δ N-type calcium channel subunits in a vertebrate expression vector (for example, see Current Protocols in Molecular Biology).
# After an incubation period of from 24 to 72 hrs the culture medium was removed and replaced with external recording solution (see below). Whole cell patch clamp experiments were performed using an Axopatch 200B amplifier (Axon Instruments, Burlingame, Calif.) linked to an IBM compatible personal computer equipped with pCLAMP software. Borosilicate glass patch pipettes (Sutter Instrument Co., Novato, Calif.) were polished (Microforge, Narishige, Japan) to a resistance of about 4 MΩ when filled with cesium methanesulfonate internal solution (composition in MM: 109 CsCH3SO4, 4 MgCl2, 9 EGTA, 9 HEPES, pH 7.2). Cells were bathed in 5 mM Ba^++ (in mM: 5 BaCl2, 1 MgCl2, 10 HEPES, 40 tetraethylammonium chloride, 10 glucose, 87.5 CsCl pH 7.2). […] Drugs were perfused directly into the vicinity of the cells using a microperfusion system.
# Normalized dose-response curves were fit (Sigmaplot 4.0, SPSS Inc., Chicago, Ill.) by the Hill equation to determine IC50 values. Steady-state inactivation curves were plotted as the normalized test pulse amplitude following 5 s inactivating prepulses at +10 mV increments. Inactivation curves were fit (Sigmaplot 4.0) with the Boltzman equation, Ipeak (normalized)=1/(1+exp((V-Vh)z/25.6)), where V and Vh are the conditioning and half inactivation potentials, respectively, and z is the slope factor.
# Using the procedure set forth above, various compounds of the invention were tested for their ability to block N-type calcium channels.
# [4] = test system: rat formalin model; test: Formalin-induced pain model; format: in vivo; settings: 30 mg/kg IP, 10 minutes prior to formalin, saline control=100%
# Procedure: The effects of intrathecally delivered compounds of the invention on the rat formalin model were measured. The compounds were reconstituted to stock solutions of approximately 10 mg/ml in propylene glycol. Eight Holtsman male rats of 275-375 g size were randomly selected per test compound.
# The following study groups were used, with test compounds, vehicle control (propylene glycol) and saline delivered intraperitoneally (IP):
# Prior to initiation of drug delivery baseline behavioral and testing data were taken.
# On the morning of testing, a small metal band (0.5 g) was loosely placed around the right hind paw. The rat was placed in a cylindrical Plexiglas chamber for adaptation a minimum of 30 minutes. Test compound or vehicle control was administered 10 minutes prior to formalin injection (50 μl of 5% formalin) into the dorsal surface of the right hindpaw of the rat. The animal was then placed into the chamber of the automated formalin apparatus where movement of the formalin injected paw was monitored and the number of paw flinches tallied by minute over the next 60 minutes. (See Malmberg, A. M., and Yaksh, T. L., Anesthesiology (1993) 79:270-281.)
# Results are presented as Maximum Possible Effect±SEM, where saline control=100%.
# [5] = test system: P/Q-type channels (α1A+α2δ+β1b cDNA subunits); test: Selectivity patch clamp, P/Q-type channels in HEK 293 (Example 7); format: cell-based; settings: Tested at 0.1 Hz, 5 mM Ba2+
# [6] = target: T3, human α1G subunits (T-type channels) (Homo sapiens, UniProt O43497); test: Block of α1G T-type channels, patch clamp in HEK cell lines (Example 8); format: cell-based
# T3 construct: expressed in transfected cells
# Procedure: Standard patch-clamp techniques were employed to identify blockers of T-type currents. Briefly, previously described HEK cell lines stably expressing human α1G subunits were used for all the recordings (passage #: 4-20, 37° C., 5% CO2). To obtain T-type currents, plastic dishes containing semi-confluent cells were positioned on the stage of a ZEISS AXIOVERT S100 microscope after replacing the culture medium with external solution (see below). Whole-cell patches were obtained using pipettes (borosilicate glass with filament, O.D.: 1.5 mm, I.D.: 0.86 mm, 10 cm length), fabricated on a SUTTER P-97 puller with resistance values of ˜5 MΩ (see below for internal medium).
# In the non-inactivating protocol, the holding potential is set at −110 mV and with a pre-pulse at −100 mV for 1 second prior to the test pulse at −40 mV for 50 ms; in the inactivation protocol, the pre-pulse is at approximately −85 mV for 1 second, which inactivates about 15% of the T-type channels, as shown below. [formula]
# Test compounds were dissolved in external solution, 0.1-0.01% DMSO. After ˜10 min rest, they were applied by gravity close to the cell using a WPI microfil tubing. The “non-inactivated” pre-pulse was used to examine the resting block of a compound. The “inactivated” protocol was employed to study voltage-dependent block, but the initial data shown below were mainly obtained using the non-inactivated protocol only. IC50 values are shown for various compounds of the invention in Table 5.
# [7] = 0.067 Hz, read-out: Block of α1B N-type Channels IC50, 0.067 Hz
# [8] = 0.2 Hz, read-out: Block of α1B N-type Channels IC50, 0.2 Hz
# [9] = 100 mV (non-inactivating protocol), read-out: Block of α1G T-type Channels IC50, 100 mV
# [10] = 80 mV (inactivation protocol), read-out: Block of α1G T-type Channels IC50, 80 mV
# T3 sequence (O43497 whole entry): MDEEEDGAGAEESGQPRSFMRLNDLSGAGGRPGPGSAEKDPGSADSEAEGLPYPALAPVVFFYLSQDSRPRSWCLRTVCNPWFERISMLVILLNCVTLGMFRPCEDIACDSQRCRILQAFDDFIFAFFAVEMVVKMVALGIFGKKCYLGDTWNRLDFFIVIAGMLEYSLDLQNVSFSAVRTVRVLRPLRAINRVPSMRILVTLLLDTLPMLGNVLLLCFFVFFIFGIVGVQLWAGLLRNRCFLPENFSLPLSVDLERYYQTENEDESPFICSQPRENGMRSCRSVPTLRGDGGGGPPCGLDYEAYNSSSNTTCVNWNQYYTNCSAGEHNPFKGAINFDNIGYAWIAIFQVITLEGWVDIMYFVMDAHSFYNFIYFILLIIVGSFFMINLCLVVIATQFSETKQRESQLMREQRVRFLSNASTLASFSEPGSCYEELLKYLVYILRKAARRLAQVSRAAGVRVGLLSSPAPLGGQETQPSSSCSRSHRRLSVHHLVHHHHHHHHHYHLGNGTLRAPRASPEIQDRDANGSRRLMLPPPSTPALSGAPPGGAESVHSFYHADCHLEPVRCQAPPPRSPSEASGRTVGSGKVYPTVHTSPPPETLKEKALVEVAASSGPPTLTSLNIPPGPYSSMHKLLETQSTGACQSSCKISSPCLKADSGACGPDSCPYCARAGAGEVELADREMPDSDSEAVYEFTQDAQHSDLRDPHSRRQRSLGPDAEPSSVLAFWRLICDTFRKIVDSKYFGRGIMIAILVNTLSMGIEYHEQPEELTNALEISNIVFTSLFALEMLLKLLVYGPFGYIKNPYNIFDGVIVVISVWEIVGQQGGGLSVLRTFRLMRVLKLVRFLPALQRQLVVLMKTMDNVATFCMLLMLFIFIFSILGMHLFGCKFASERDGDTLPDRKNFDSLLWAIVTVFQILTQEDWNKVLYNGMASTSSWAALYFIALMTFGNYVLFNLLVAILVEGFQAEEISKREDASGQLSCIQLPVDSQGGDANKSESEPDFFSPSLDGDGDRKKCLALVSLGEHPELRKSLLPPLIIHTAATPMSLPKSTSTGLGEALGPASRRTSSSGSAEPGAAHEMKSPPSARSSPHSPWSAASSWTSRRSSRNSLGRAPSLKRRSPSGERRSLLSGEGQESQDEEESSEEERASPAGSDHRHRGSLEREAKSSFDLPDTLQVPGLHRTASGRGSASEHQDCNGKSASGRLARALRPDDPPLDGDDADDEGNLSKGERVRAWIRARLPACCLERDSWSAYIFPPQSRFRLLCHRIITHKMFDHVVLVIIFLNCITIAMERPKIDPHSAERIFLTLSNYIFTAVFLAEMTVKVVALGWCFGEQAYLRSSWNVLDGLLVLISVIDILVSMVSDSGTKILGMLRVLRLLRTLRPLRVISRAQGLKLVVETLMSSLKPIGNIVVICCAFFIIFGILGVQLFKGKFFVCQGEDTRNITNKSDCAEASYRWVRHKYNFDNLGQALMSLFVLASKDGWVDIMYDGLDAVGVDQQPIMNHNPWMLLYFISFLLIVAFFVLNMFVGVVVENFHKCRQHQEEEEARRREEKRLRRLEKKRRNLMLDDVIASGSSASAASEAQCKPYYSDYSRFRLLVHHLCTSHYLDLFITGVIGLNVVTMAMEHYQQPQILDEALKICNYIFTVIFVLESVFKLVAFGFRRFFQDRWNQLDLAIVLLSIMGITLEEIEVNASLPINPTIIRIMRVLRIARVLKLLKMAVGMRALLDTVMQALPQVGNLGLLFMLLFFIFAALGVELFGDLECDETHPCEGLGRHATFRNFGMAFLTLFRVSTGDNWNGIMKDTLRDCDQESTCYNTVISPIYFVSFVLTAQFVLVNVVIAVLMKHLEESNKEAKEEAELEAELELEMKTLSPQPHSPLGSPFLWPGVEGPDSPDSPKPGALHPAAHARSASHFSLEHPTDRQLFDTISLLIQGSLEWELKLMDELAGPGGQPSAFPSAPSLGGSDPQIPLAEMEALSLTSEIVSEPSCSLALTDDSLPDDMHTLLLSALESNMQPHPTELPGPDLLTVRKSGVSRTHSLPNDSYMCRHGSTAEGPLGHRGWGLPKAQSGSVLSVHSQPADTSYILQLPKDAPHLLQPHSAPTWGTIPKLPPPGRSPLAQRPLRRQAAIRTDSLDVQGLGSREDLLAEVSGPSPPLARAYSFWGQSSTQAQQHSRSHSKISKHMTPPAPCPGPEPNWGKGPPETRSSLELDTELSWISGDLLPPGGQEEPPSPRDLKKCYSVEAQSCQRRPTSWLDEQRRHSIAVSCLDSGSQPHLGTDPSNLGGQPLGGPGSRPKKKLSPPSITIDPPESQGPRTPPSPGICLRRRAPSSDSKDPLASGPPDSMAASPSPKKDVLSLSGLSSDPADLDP
# T1 sequence (Q02294 whole entry): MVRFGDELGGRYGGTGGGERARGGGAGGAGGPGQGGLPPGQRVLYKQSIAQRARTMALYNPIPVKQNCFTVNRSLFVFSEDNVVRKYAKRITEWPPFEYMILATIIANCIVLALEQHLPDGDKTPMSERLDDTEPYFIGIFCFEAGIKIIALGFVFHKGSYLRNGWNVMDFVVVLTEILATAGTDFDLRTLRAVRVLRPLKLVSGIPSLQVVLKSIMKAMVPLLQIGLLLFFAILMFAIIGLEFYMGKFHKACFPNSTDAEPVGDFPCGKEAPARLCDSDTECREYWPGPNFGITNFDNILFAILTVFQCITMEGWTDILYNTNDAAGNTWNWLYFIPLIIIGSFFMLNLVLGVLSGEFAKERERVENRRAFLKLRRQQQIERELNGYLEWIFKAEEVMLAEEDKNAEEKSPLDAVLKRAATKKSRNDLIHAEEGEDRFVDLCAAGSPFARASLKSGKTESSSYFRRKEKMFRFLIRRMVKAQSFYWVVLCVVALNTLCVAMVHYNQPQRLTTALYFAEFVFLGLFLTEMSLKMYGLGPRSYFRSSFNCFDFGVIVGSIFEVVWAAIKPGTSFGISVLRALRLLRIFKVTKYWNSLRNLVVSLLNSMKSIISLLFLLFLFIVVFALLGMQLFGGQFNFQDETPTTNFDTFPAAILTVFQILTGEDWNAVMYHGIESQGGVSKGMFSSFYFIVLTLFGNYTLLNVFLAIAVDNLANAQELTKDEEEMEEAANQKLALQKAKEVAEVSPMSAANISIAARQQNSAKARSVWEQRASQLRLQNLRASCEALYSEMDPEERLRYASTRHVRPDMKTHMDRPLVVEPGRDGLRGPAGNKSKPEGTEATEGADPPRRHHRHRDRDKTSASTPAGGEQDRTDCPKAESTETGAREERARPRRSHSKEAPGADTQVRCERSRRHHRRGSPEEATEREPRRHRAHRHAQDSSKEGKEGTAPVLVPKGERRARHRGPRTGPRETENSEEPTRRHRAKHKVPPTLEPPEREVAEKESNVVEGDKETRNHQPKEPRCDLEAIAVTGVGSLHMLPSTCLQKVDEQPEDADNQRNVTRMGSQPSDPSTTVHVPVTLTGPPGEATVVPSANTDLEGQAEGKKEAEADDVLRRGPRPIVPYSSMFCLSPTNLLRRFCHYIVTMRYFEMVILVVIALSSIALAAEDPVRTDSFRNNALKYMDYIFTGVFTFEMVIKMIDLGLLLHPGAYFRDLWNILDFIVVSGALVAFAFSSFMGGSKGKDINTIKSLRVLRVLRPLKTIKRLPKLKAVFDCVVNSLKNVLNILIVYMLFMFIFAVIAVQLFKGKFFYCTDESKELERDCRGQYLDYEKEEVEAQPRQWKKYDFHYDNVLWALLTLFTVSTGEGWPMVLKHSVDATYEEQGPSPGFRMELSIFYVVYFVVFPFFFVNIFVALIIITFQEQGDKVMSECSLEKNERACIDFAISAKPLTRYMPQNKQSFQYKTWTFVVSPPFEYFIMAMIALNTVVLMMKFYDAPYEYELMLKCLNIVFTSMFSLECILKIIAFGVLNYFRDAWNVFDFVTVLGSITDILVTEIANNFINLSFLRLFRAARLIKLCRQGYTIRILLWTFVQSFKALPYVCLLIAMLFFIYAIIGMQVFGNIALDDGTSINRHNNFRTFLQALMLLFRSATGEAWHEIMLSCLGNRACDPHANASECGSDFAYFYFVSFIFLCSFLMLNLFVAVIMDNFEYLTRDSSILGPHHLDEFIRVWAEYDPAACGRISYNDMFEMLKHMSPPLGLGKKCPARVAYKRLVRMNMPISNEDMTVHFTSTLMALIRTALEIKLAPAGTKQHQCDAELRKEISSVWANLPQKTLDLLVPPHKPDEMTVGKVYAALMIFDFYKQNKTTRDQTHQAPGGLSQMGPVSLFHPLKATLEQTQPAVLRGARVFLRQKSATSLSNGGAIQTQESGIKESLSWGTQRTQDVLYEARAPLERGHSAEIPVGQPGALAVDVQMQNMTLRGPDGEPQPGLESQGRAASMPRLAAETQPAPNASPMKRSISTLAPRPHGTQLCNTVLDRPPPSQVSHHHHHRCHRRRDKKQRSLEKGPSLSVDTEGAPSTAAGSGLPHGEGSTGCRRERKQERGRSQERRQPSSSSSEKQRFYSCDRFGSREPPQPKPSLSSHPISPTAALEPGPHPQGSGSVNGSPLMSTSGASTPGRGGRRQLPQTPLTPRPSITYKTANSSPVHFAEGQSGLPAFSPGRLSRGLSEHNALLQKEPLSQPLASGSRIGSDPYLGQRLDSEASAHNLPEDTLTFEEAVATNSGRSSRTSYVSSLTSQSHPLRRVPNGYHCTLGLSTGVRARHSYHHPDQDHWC
# T2 sequence (Q02294 whole entry): as above
Structure (SMILES),IC50 [1] [nM],IC50 [2] [nM],"IC50 [3, 7] [nM]","IC50 [3, 8] [nM]","Maximum Possible Effect ± SEM, Phase I [4] [%]","Maximum Possible Effect ± SEM, Phase II [4] [%]","Maximum Possible Effect ± SEM, Phase IIA [4] [%]",IC50 [5] [nM],"IC50 [6, 9] [nM]","IC50 [6, 10] [nM]"
O=C(CC(c1ccccc1)c1ccccc1)N1CCN(C(c2ccccc2)c2cccc(C(F)(F)F)c2)CC1 (centres unmarked) [Compound P2],6600,113,200,105,57 ± 14,67 ± 10,61 ± 11,1630,,
CC(C)(C)c1cc(C(c2ccccc2)N2CCN(C(=O)CC(c3ccccc3)c3ccccc3)CC2)cc(C(C)(C)C)c1O (centres unmarked) [Compound P4],> 10000,251,213,114,,,,> 10000,,
O=C(CC(c1ccccc1)c1ccccc1)N1CCN(C(c2ccccc2)c2ccc(Cl)cc2)CC1 (centres unmarked) [Compound P6],133000,160,170,120,,,,4500,81,
O=C(CC(c1ccccc1)c1ccccc1)N1CCN([C@@H](c2ccccc2)c2ccc(Cl)cc2)CC1 [Compound P47],4370,197,237,138,60 ± 7,55 ± 8,54 ± 9,1860,1440,464
COc1ccc(C(c2ccc(C(F)(F)F)cc2)N2CCN(C(=O)CC(c3ccccc3)c3ccccc3)CC2)cc1 (centres unmarked) [Compound P3],> 10000,185,291,111,89 ± 8,79 ± 4,85 ± 5,7590,,
O=C(CC(c1ccccc1)c1ccccc1)N1CCN(C(c2ccccc2)c2ccccc2Cl)CC1 (centres unmarked) [Compound P35],106000,209,211,92,78 ± 8,67 ± 8,52 ± 11,7030,,141
O=C(CC(c1ccccc1)c1ccccc1)N1CCN(C(c2ccccc2)c2cccc(Cl)c2)CC1 (centres unmarked) [Compound P36],8500,206,114,44,62 ± 14,60 ± 10,42 ± 9,930,,55
O=C(CC(c1ccccc1)c1ccccc1)N1CCN(C(c2ccccc2)c2ccc(Cl)cc2Cl)CC1 (centres unmarked) [Compound P29],126000,385,,,78 ± 17,70 ± 10,61 ± 9,26000,33,4
O=C(CC(c1ccccc1)c1ccccc1)N1CCN(C(c2ccccc2)c2ccc(C(F)(F)F)cc2)CC1 (centres unmarked) [Compound P1],19600,190,100,74,,,,970,,
CCOC(=O)C1CN(C(c2ccccc2)c2ccccc2)CCN1C(=O)CC(c1ccccc1)c1ccccc1 (centres unmarked) [Compound P5],210000,73,160,120,,,,5000,,
O=C(CC(c1ccccc1)c1ccccc1)N1CCN(C(c2ccccc2)c2ccc3c(c2)OCO3)CC1 (centres unmarked) [Compound P7],15800,101,213,137,56 ± 12,67 ± 6,61 ± 11,6500,,
Cc1ccc(C(c2ccccc2)N2CCN(C(=O)CC(c3ccccc3)c3ccccc3)CC2)c(C)c1 (centres unmarked) [Compound P18],13400,217,324,237,73 ± 17,84 ± 12,78 ± 13,3590,35,
Cl.O=C(O)C1CN(C(c2ccccc2)c2ccccc2)CCN1C(=O)CC(c1ccccc1)c1ccccc1 (centres unmarked) [Compound P8],37100,360,230,140,78 ± 5,70 ± 15,57 ± 18,3400,,
